Counter-ions that a name gives are not always drawn.
Experiments:
S-3769 strain = test: Combinational effect with antibacterial agent against Pseudomonas aeruginosa (Test Examples 2 and 4): S-3769 strain with AMK or GM at 1/4 MIC, EC99; assay type: cell-based; settings: S-3769 strain, Test Example 4; for EC99, combinational effect with AMK, S-3769 strain: combined with AMK at 1/4 MIC; for EC99, combinational effect with GM, S-3769 strain: combined with GM at 1/4 MIC
Outline: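 P. aeruginosa S-3769 (clinical isolate, MexY overexpressed) grown 16–20 h in CAMHB, 10^4 to 5 CFU/well, with AMK or GM at ¼ MIC plus test compound 0–800 μM. Growth read as OD595; EC99 is the lowest compound concentration giving ≥99% growth inhibition.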

mexB (PA) strain = test: Combinational effect with antibacterial agent against Pseudomonas aeruginosa (Test Examples 2 and 4): mexB (PA) strain with LVFX, TC or AZT at 1/4 MIC, EC99; assay type: cell-based; settings: mexB (PA) strain, Test Example 4; for EC99, combinational effect with AZT, mexB (PA): combined with AZT at 1/4 MIC; for EC99, combinational effect with LVFX, mexB (PA): combined with LVFX at 1/4 MIC; for EC99, combinational effect with TC, mexB (PA): combined with TC at 1/4 MIC
Outline: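 P. aeruginosa mexB (PA) strain, lacking MexCD-OprJ, MexEF-OprN and MexXY and overexpressing MexAB-OprM, grown 16–20 h in CAMHB (10^4–5 CFU/well) with LVFX, TC or AZT at ¼ MIC plus test compound at 0–800 μM. Growth read as OD595; EC99 is the lowest compound concentration giving ≥99% growth inhibition.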

| SMILES | EC99, combinational effect with AMK, S-3769 strain (S-3769 strain) | EC99, combinational effect with GM, S-3769 strain (S-3769 strain) | EC99, combinational effect with AZT, mexB (PA) (mexB (PA) strain) | EC99, combinational effect with LVFX, mexB (PA) (mexB (PA) strain) | EC99, combinational effect with TC, mexB (PA) (mexB (PA) strain) |
| --- | --- | --- | --- | --- | --- |
| CCSc1cccc(O)c1CN1CCN(C(=O)[C@H](N)C2CCN(CCc3cc(Cl)ccc3-c3ccccc3)CC2)CC1 [Example 591, Hydrochloride of (R)-2-amino-2-(1-(2-(4-chloro-[1,1-biphenyl]-2-yl)ethyl)piperidin-4-yl)-1-(4-(2-(ethylthio)-6-hydroxybenzyl)piperazin-1-yl)ethan-1-one] | B (25 μM<EC99≤100 μM) | B (25 μM<EC99≤100 μM) | S (EC99≤12.5 μM) | S (EC99≤12.5 μM) | S (EC99≤12.5 μM) |
| CSc1ccccc1CN1CCN(C(=O)[C@H](N)C2CCN(CCc3cc(Cl)ccc3-c3ccccc3O)CC2)CC1 [Example 592, Hydrochloride of (R)-2-amino-2-(1-(2-(4-chloro-2′-hydroxy-[1,1-biphenyl]-2-yl)ethyl)piperidin-4-yl)-1-(4-(2-(methylthio)benzyl)piperazin-1-yl)ethan-1-one] | A (12.5 μM<EC99≤25 μM) | B (25 μM<EC99≤100 μM) | S (EC99≤12.5 μM) | S (EC99≤12.5 μM) | S (EC99≤12.5 μM) |
| CCSc1cc(F)ccc1CN1CCN(C(=O)[C@H](N)C2CCN(CCc3cc(Cl)ccc3-c3cccc(O)c3)CC2)CC1 [Example 593, Hydrochloride of (R)-2-amino-2-(1-(2-(4-chloro-3′-hydroxy-[1,1-biphenyl]-2-yl)ethyl)piperidin-4-yl)-1-(4-(2-(ethylthio)-4-fluorobenzyl)piperazin-1-yl) ethan-1-one] | S (EC99≤12.5 μM) | B (25 μM<EC99≤100 μM) | B (25 μM<EC99≤100 μM) | A (12.5 μM<EC99≤25 μM) | A (12.5 μM<EC99≤25 μM) |
| CCSc1cc(F)ccc1CN1CCN(C(=O)[C@H](N)C2CCN(CCc3cc(Cl)ccc3-c3ccccc3O)CC2)CC1 [Example 594, Hydrochloride of (R)-2-amino-2-(1-(2-(4-chloro-2′-hydroxy-[1,1-biphenyl]-2-yl)ethyl)piperidin-4-yl)-1-(4-(2-(ethylthio)-4-fluorobenzyl)piperazin-1-yl) ethan-1-one] | S (EC99≤12.5 μM) | A (12.5 μM<EC99≤25 μM) | S (EC99≤12.5 μM) | A (12.5 μM<EC99≤25 μM) | S (EC99≤12.5 μM) |
| CCOc1cccc(F)c1CN1CCN(C(=O)[C@H](N)C2CCN(CCc3cc(Cl)ccc3-c3cccc(O)c3F)CC2)CC1 [Example 595, Hydrochloride of (R)-2-amino-2-(1-(2-(4-chloro-2-fluoro-3′-hydroxy-[1,1-biphenyl]-2-yl)ethyl)piperidin-4-yl)-1-(4-(2-ethoxy-6-fluorobenzyl)piperazin-1-yl)ethan-1-one] | S (EC99≤12.5 μM) | A (12.5 μM<EC99≤25 μM) | S (EC99≤12.5 μM) | S (EC99≤12.5 μM) | S (EC99≤12.5 μM) |
| CCOc1cccc(F)c1CN1CCN(C(=O)[C@H](N)C2CCN(CCc3cc(O)ccc3-c3ccccc3)CC2)CC1 [Example 596, Hydrochloride of (R)-2-amino-1-(4-(2-ethoxy-6-fluorobenzyl)piperazin-1-yl)-2-(1-(2-(4-hydroxy-[1,1′-biphenyl]-2-yl)ethyl)piperidin-4-yl)ethan-1-one] | S (EC99≤12.5 μM) | A (12.5 μM<EC99≤25 μM) | C (100 μM<EC99) | B (25 μM<EC99≤100 μM) | B (25 μM<EC99≤100 μM) |
| CCSc1cc(F)ccc1CN1CCN(C(=O)[C@H](N)C2CCN(CCc3cc(Cl)ccc3C3=CCNCC3)CC2)CC1 [Example 597, hydrochloride of (R)-2-amino-2-(1-(5-chloro-2-(1,2,3,6-tetrahydropyridin-4-yl)phenethyl)piperidin-4-yl)-1-(4-(2-(ethylthio)-4-fluorobenzyl)piperazin-1-yl)ethan-1-one] | S (EC99≤12.5 μM) | S (EC99≤12.5 μM) | B (25 μM<EC99≤100 μM) | S (EC99≤12.5 μM) | S (EC99≤12.5 μM) |
| CCSc1cc(F)ccc1CN1CCN(C(=O)[C@H](N)C2CCN(CCc3cc(Cl)ccc3-c3ccccc3F)CC2)CC1 [Example 598, Hydrochloride of (R)-2-amino-2-(1-(2-(4-chloro-2′-fluoro-[1,1-biphenyl]-2-yl)ethyl)piperidin-4-yl)-1-(4-(2-(ethylthio)-4-fluorobenzyl)piperazin-1-yl) ethan-1-one] | A (12.5 μM<EC99≤25 μM) | S (EC99≤12.5 μM) | S (EC99≤12.5 μM) | S (EC99≤12.5 μM) | S (EC99≤12.5 μM) |
| CSc1ccccc1CN1CCN(C(=O)[C@H](N)C2CCN(CCc3cc(Cl)ccc3-c3cccc(N)c3)CC2)CC1 [Example 600, Hydrochloride of (R)-2-amino-2-(1-(2-(3′-amino-4-chloro-[1,1-biphenyl]-2-yl)ethyl)piperidin-4-yl)-1-(4-(2-(methylthio)benzyl)piperazin-1-yl)ethan-1-one] | A (12.5 μM<EC99≤25 μM) | A (12.5 μM<EC99≤25 μM) | S (EC99≤12.5 μM) | S (EC99≤12.5 μM) | S (EC99≤12.5 μM) |
| CSc1ccccc1CN1CCN(C(=O)[C@H](N)C2CCN(CCc3cc(Cl)ccc3-c3ccccc3F)CC2)CC1 [Example 601, Hydrochloride of (R)-2-amino-2-(1-(2-(4-chloro-2′-fluoro-[1,1-biphenyl]-2-yl)ethyl)piperidin-4-yl)-1-(4-(2-(methylthio)benzyl)piperazin-1-yl) ethan-1-one] | B (25 μM<EC99≤100 μM) | B (25 μM<EC99≤100 μM) | A (12.5 μM<EC99≤25 μM) | A (12.5 μM<EC99≤25 μM) | A (12.5 μM<EC99≤25 μM) |
| CSc1ccccc1CN1CCN(C(=O)[C@H](N)C2CCN(CCc3cc(Cl)ccc3C3=CCNCC3)CC2)CC1 [Example 602, Hydrochloride of (R)-2-amino-2-(1-(5-chloro-2-(1,2,3,6-tetrahydropyridin-4-yl)phenethyl)piperidin-4-yl)-1-(4-(2-(methylthio)benzyl)piperazin-1-yl) ethan-1-one] | S (EC99≤12.5 μM) | S (EC99≤12.5 μM) | B (25 μM<EC99≤100 μM) | S (EC99≤12.5 μM) | S (EC99≤12.5 μM) |
| CCSc1cc(F)ccc1CN1CCN(C(=O)[C@H](N)C2CCN(CCc3cc(Cl)ccc3-c3ccccc3N)CC2)CC1 [Example 604, Hydrochloride of (R)-2-amino-2-(1-(2-(2′-amino-4-chloro-[1,1-biphenyl]-2-yl)ethyl)piperidin-4-yl)-1-(4-(2-(ethylthio)-4-fluorobenzyl)piperazin-1-yl) ethan-1-one] | A (12.5 μM<EC99≤25 μM) | A (12.5 μM<EC99≤25 μM) | S (EC99≤12.5 μM) | S (EC99≤12.5 μM) | S (EC99≤12.5 μM) |
| CCSc1cc(F)ccc1CN1CCN(C(=O)[C@H](N)C2CCN(CCc3cc(Cl)ccc3C3=CCCNC3)CC2)CC1 [Example 605, Hydrochloride of (R)-2-amino-2-(1-(5-chloro-2-(1,2,5,6-tetrahydropyridin-3-yl)phenethyl)piperidin-4-yl)-1-(4-(2-(cthylthio)-4-fluorobenzyl)piperazin-1-yl) ethan-1-one] | S (EC99≤12.5 μM) | S (EC99≤12.5 μM) | B (25 μM<EC99≤100 μM) | S (EC99≤12.5 μM) | S (EC99≤12.5 μM) |
| CCSc1cc(F)ccc1CN1CCN(C(=O)[C@H](N)C2CCN(CCc3cc(Cl)ccc3-c3cc(N)cc(F)c3)CC2)CC1 [Example 606, Hydrochloride of (R)-2-amino-2-(1-(2-(3′-amino-4-chloro-5′-fluoro-[1,1-biphenyl]-2-yl)ethyl)piperidin-4-yl)-1-(4-(2-(ethylthio)-4-fluorobenzyl)piperazin-1-yl)ethan-1-one] | B (25 μM<EC99≤100 μM) | B (25 μM<EC99≤100 μM) | S (EC99≤12.5 μM) | S (EC99≤12.5 μM) | S (EC99≤12.5 μM) |

Reference: patent US20250326744A1, “PIPERAZINE DERIVATIVE OR SALT THEREOF, AND PHARMACEUTICAL COMPOSITION” (priority 2022, published 2025)
